# Source: PubChem BioAssay (NCI)
#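 GI50 = concentration required for 50% inhibition of growth. At the TGI there is no net growth.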
# Key:
# Experiment in all cases: NCI-60 cell line screen, 384-well format
# [1] = tested on: IGROV1 ovarian
# [2] = tested on: UACC-62 melanoma
# [3] = tested on: NCI-H460 NSCLC
# [4] = tested on: NCI/ADR-RES ovarian
# [5] = tested on: EKVX NSCLC
# [6] = tested on: SNB-75 CNS
# [7] = tested on: NCI-H522 lung
# [8] = tested on: MCF7 breast
# [9] = tested on: HT29 colon
# [10] = tested on: SN12C renal
# [11] = tested on: K-562 leukemia
# [12] = tested on: MDA-MB-468 breast
# [13] = tested on: A498 renal
# [14] = tested on: HCT-116 colon
# [15] = tested on: CAKI-1 renal
# [16] = tested on: SNB-19 CNS
# [17] = tested on: SW-620 colon
# [18] = tested on: 786-0 renal
# [19] = tested on: OVCAR-5 ovarian
# [20] = tested on: SK-MEL-2 melanoma
# [21] = tested on: CCRF-CEM leukemia
# [22] = tested on: HL-60(TB) leukemia
# [23] = tested on: SK-MEL-28 melanoma
# [24] = tested on: BT-549 breast
# [25] = tested on: HOP-62 NSCLC
# [26] = tested on: SR leukemia
# [27] = tested on: HCT-15 colon
# [28] = tested on: HCC-2998 colon
# [29] = tested on: RPMI-8226 leukemia
# [30] = tested on: MOLT-4 leukemia
# [31] = tested on: SK-OV-3 ovarian
# [32] = tested on: RXF 393 renal
# [33] = tested on: T-47D breast
# [34] = tested on: NCI-H23 lung
# [35] = tested on: MALME-3M melanoma
# [36] = tested on: M14 melanoma
# [37] = tested on: SF-539 CNS
# [38] = tested on: MDA-MB-435 melanoma
# [39] = tested on: SK-MEL-5 melanoma
# [40] = tested on: SF-268 CNS
# [41] = tested on: UACC-257 melanoma
# [42] = tested on: SF-295 CNS
# [43] = tested on: MDA-MB-231 breast
# [44] = tested on: UO-31 renal
# [45] = tested on: HOP-92 NSCLC
# [46] = tested on: LOX IMVI melanoma
# [47] = tested on: COLO 205 colon
# [48] = tested on: TK-10 renal
# [49] = tested on: HS 578T breast
# [50] = tested on: A549 NSCLC
# [51] = tested on: OVCAR-3 ovarian
# [52] = tested on: KM12 colon
# [53] = tested on: PC-3 prostate
# [54] = tested on: NCI-H322M lung
# [55] = tested on: NCI-H226 lung
# [56] = tested on: DU-145 prostate
# [57] = tested on: OVCAR-4 ovarian
# [58] = tested on: ACHN renal
# [59] = tested on: U251 glioblastoma
compound,measurement,setting,value
Cc1ccc(/C=N/NC(=O)c2ccccc2Oc2ccccc2)o1,GI50,[1],2.49 µM
same,TGI,[1],10.7 µM
same,GI50,[2],4.66 µM
same,TGI,[2],16.5 µM
same,GI50,[3],16.6 µM
same,TGI,[3],30.5 µM
same,GI50,[4],17.5 µM
same,TGI,[4],31.7 µM
same,GI50,[5],18.1 µM
same,TGI,[5],32.5 µM
same,GI50,[6],17.1 µM
same,TGI,[6],31.1 µM
same,GI50,[7],16.2 µM
same,TGI,[7],29.7 µM
same,GI50,[8],4.85 µM
same,TGI,[8],17.1 µM
same,GI50,[9],17.9 µM
same,TGI,[9],32 µM
same,GI50,[10],4.87 µM
same,TGI,[10],17 µM
same,GI50,[11],3.71 µM
same,TGI,[11],13.5 µM
same,GI50,[12],1.88 µM
same,TGI,[12],3.84 µM
same,GI50,[13],17.3 µM
same,TGI,[13],31.2 µM
same,GI50,[14],17.7 µM
same,TGI,[14],31.6 µM
same,GI50,[15],17.6 µM
same,TGI,[15],31.6 µM
same,GI50,[16],12.1 µM
same,TGI,[16],25 µM
same,GI50,[17],19.2 µM
same,TGI,[17],33.4 µM
same,GI50,[18],8.44 µM
same,TGI,[18],20.8 µM
same,GI50,[19],6.64 µM
same,TGI,[19],20 µM
same,GI50,[20],3.99 µM
same,TGI,[20],7.04 µM
same,GI50,[21],2 µM
same,TGI,[21],4.13 µM
same,GI50,[22],19.4 µM
same,TGI,[22],33.6 µM
same,GI50,[23],18.6 µM
same,TGI,[23],32.6 µM
same,GI50,[24],19.5 µM
same,TGI,[24],33.7 µM
same,GI50,[25],6.21 µM
same,TGI,[25],19 µM
same,GI50,[26],1.73 µM
same,TGI,[26],3.24 µM
same,GI50,[27],17.3 µM
same,TGI,[27],31.6 µM
same,GI50,[28],17.8 µM
same,TGI,[28],31.7 µM
same,GI50,[29],18.6 µM
same,TGI,[29],32.7 µM
same,GI50,[30],1.75 µM
same,TGI,[30],3.2 µM
same,GI50,[31],16.8 µM
same,TGI,[31],31.2 µM
same,GI50,[32],16.9 µM
same,TGI,[32],30.6 µM
same,GI50,[33],16.2 µM
same,TGI,[33],29.8 µM
same,GI50,[34],4.32 µM
same,TGI,[34],16.1 µM
same,GI50,[35],18.6 µM
same,TGI,[35],32.7 µM
same,GI50,[36],5.39 µM
same,TGI,[36],18 µM
same,GI50,[37],18.1 µM
same,TGI,[37],32 µM
same,GI50,[38],18.8 µM
same,TGI,[38],32.9 µM
same,GI50,[39],17.1 µM
same,TGI,[39],30.9 µM
same,GI50,[40],18.9 µM
same,TGI,[40],33.3 µM
same,GI50,[41],17.3 µM
same,TGI,[41],31.2 µM
same,GI50,[42],4.52 µM
same,TGI,[42],16.4 µM
same,GI50,[43],18.3 µM
same,TGI,[43],34 µM
same,GI50,[44],3.78 µM
same,TGI,[44],13.1 µM
same,GI50,[45],4.72 µM
same,TGI,[45],16.4 µM
same,GI50,[46],19.5 µM
same,TGI,[46],33.7 µM
same,GI50,[47],5.62 µM
same,TGI,[47],17.3 µM
same,GI50,[48],4.22 µM
same,TGI,[48],16.7 µM
same,GI50,[49],16.6 µM
same,TGI,[49],30.3 µM
same,GI50,[50],17.9 µM
same,TGI,[50],31.9 µM
same,GI50,[51],16.3 µM
same,TGI,[51],30.4 µM
same,GI50,[52],0.829 µM
same,TGI,[52],19.5 µM
same,GI50,[53],17.6 µM
same,TGI,[53],32 µM
same,GI50,[54],19.1 µM
same,TGI,[54],34.5 µM
same,GI50,[55],6.68 µM
same,TGI,[55],19.2 µM
same,GI50,[56],6.77 µM
same,TGI,[56],19.9 µM
same,GI50,[57],10.7 µM
same,TGI,[57],24.4 µM
same,GI50,[58],3.35 µM
same,TGI,[58],12.2 µM
same,GI50,[59],18 µM
same,TGI,[59],32 µM
